The experiment concerns Mus musculus. The experiment can be described thus: Induction of hypothermia in ip dosed ICR mouse assessed as decrease in body temperature measured for 7 hrs. It is filed as functional, organism-based.

This note sets out measurements from ChEMBL document CHEMBL4376835, “Discovery of Nonpungent Transient Receptor Potential Vanilloid 1 (TRPV1) Agonist as Strong Topical Analgesic” (J Med Chem, 2020).

The structures appear in SMILES notation.

Regarding `CC(C)(C)c1nc(-c2cccc(Cl)c2)c(CNC(=O)Nc2ccc(CO)c(F)c2)s1`, the Activity result was “Dose-dependent effect”.
